Here are results for 19 compounds from patent publication US9872493B2, “Method for promoting plant growth” (SUMITOMO CHEMICAL COMPANY, LIMITED, priority 2012, dated 2018).

Molecules are shown by their SMILES. Like-named read-outs stand apart in the source and are kept apart here.

The test system of assay [1] is Rice (Variety: Nipponbare). Nature of the assay: Test for evaluating promotion of root growth by hydroponics of rice (Test Examples 1-3). In kind it is in vivo. As to the method:
Rice (Variety: Nipponbare)
(§1) A DMSO solution, which contained one of the compounds 14, 18, 21, 23, 26, 28, 29, 30, 35, 36, 37, 39 and 40 of the present invention at a concentration of 100,000 ppm, was added to Hoagland hydroponic solution (Hoagland and Arnon, California Agricultural Experiment Station 1950 Circular 347 pp. 34) of ¼-fold concentration at a volume ratio of 1/10,000. In this manner, hydroponic solutions containing one of the compounds 14, 18, 21, 23, 26, 28, 29, 30, 35, 36, 37, 39 and 40 of the present invention at 10 ppm were prepared respectively. As an untreated control plot, a hydroponic solution obtained by adding DMSO to Hoagland hydroponic solution of ¼-fold concentration at a volume ratio of 1/10,000 was used.
Rice seeds were soaked in a 1% aqueous sodium hypochlorite solution for 10 minutes, then soaked in a 70% ethanol solution for surface sterilization, and then washed with distilled water. The sterilized seeds were soaked in a hydroponic solution containing the test compound described above at 10 ppm and incubated in a dark place for 3 days at 28° C. to perform treatment for hastening germination.
Thereafter, 30 ml of hydroponic solution containing the test compound at 10 ppm was dispensed in a plastic tube (diameter of 20 mm×height of 113 mm) of which the side was covered with cardboard to block light. A float prepared using a styrene board and vinyl mesh was floated, and the rice seeds that had undergone the treatment for hastening germination were placed on the float on the surface of the hydroponic solution. The seeds were cultivated for 3 days at 26° C., an illuminance of 4,000 lux of the top surface of the tube, a humidity of 50%, and a day length of 16 hours.
The nursery plants of rice obtained after cultivating were measured in terms of the length of seminal root by using WinRHIZO system (manufactured by Regent Instruments Inc). For each test plot, an average of the measured values of the seminal root of 4 or 5 individuals were determined.
as §1, with “compounds 7, 8, 9, 10, 12, 17, 20,” for “compounds 14, 18,”, “21, 25, 27,” for “21, 23, 26,”, “30, 34,” for “30,”, “37, 38,” for “37,”, “of 10,000” for “of 100,000”, “at 1” for “at 10”
Rice seeds were soaked in a 1% aqueous sodium hypochlorite solution for 10 minutes, then soaked in a 70% ethanol solution for surface sterilization, and then washed with distilled water. The sterilized seeds were soaked in a hydroponic solution containing the test compound described above at 1 ppm and incubated in a dark place for 3 days at 28° C. to perform treatment for hastening germination.
Thereafter, 30 ml of hydroponic solution containing the test compound at 1 ppm was dispensed in a plastic tube (diameter of 20 mm×height of 113 mm) of which the side was covered with cardboard to block light. A float prepared using a styrene board and vinyl mesh was floated, and the rice seeds that had undergone the treatment for hastening germination were placed on the float on the surface of the hydroponic solution. The seeds were cultivated for 3 days at 26° C., an illuminance of 4,000 lux of the top surface of the tube, a humidity of 50%, and a day length of 16 hours.
The nursery plants of rice obtained after cultivation were measured in terms of the length of seminal root by using WinRHIZO system (manufactured by Regent Instruments Inc). […]

A further assay deals with Nicotiana benthamiana. The experiment in a line: Test for evaluating growth promotion under low-temperature stress by hydroponics of Nicotiana benthamiana (Test Examples 4-6). It counts as in vivo. The following applies: read-out: value of a relative leaf area (equation (1)); for relative green leaf area after low-temperature stress at 0.1 ppm: compound at 0.1 ppm; for relative green leaf area after low-temperature stress at 10 ppm: compound at 10 ppm. As to the method: A DMSO solution, which contained one of the compounds 5, 14, 22, 23, 24, 25, 26, 28, 30, 31, 32, 33, 34, 35, 38, 39 and 40 of the present invention at a concentration of 10,000 ppm, was prepared. The DMSO solution of the compound of the present invention was added at a volume ratio of 1/1,000 to the Murashige•Scoog medium of a ½-fold concentration (a medium containing 2.3 g of mixed salts (manufactured by Wako Pure Chemical Industries, Ltd.), 200 mg of Myo-inositol (manufactured by Sigma-Aldrich Co. LLC.), 2 mg of nicotinic acid (manufactured by Wako Pure Chemical Industries, Ltd.), 2 mg of pyridoxine hydrochloride (manufactured by Wako Pure Chemical Industries, Ltd.), 20 mg of thiamine hydrochloride (manufactured by Wako Pure Chemical Industries, Ltd.), 20 g of sucrose (manufactured by Wako Pure Chemical Industries, Ltd.), and 1 g of MES (manufactured by DOJINDO LABORATORIES) per 1 L of water and having pH adjusted to 5.8), thereby preparing a medium containing the compound of the present invention at a concentration of 10 ppm.
Seeds of Nicotiana benthamiana were seeded in the 5 μL of the medium and cultured overnight at 22° C. Thereafter, 45 μL of the medium containing the compound of the present invention at a concentration of 10 ppm was added thereto, and the seeds are cultivated for 7 days at 22° C., an illuminance of 4,000 lux, and a day length of 16 hours, thereby the nursery plants raised from the Nicotiana benthamiana were treated with the compound.
Moreover, instead of the above medium a test plot, which was obtained by performing the same treatment by using a medium prepared by adding DMSO to the Murashige•Scoog medium of ½-fold concentration at a volume ratio of 1/1,000, was used as a control plot not treated with the compound.
The nursery plants of the Nicotiana benthamiana treated with the compound were subjected to low-temperature treatment by being cultivated for 7 days at 1.5±1.0° C., an illuminance of 2,000 lux, and a day length of 16 hours.
The nursery plants of the Nicotiana benthamiana having undergone the low-temperature stress treatment were cultivated for 3 days at 22° C., an illuminance of 4,000 lux, and a day length of 16 hours. Thereafter, the area of green leaf was quantified by Scanalyzer HTS (manufactured by LemnaTec GmbH). Moreover, the value of the control plot not treated with the compound that had not yet been subjected to the low-temperature stress treatment was measured in the same manner. A value of a relative leaf area was calculated based on the following equation (1), and if the value of a relative leaf area was 5 or greater, the compound was evaluated to have a mitigating effect. As a result of the evaluation, it was confirmed that when the plant was treated with one of the compounds 5, 14, 22, 23, 24, 25, 26, 28, 30, 31, 32, 33, 34, 35, 38, 39 and 40 of the present invention at 10 ppm, the value of a relative leaf area was 5 or greater, compared to the area of green leaf of the control plot not treated with compound. Accordingly, it was confirmed that the treatment using the compound of the present invention brings about a growth promotion effect. Relative leaf area=100*(a green area of a plot treated with the compound of the present invention−a green area of a control plot not treated with the compound of the present invention)/(a green area of a control plot not treated with the compound of the present invention that has not yet been subjected to low-temperature stress treatment−a green area of a control plot not treated with the compound of the present invention) Equation (1): […]
A DMSO solution, which contained one of the compounds 6, 7, 8, 11, 12, 15, 19, 23, 24, 25, 28, 30, 31, 33, 34, 36, 37, 38 and 39 of the present invention at a concentration of 1,000 ppm, was prepared. […]

Where [2] appears, read: 7 days at 1.5±1.0° C. low-temperature stress, then 3 days at 22° C., green leaf area vs untreated control.
Where [3] appears, read: compound at 1 ppm, 7 days at 1.5±1.0° C. low-temperature stress, then 3 days at 22° C., green leaf area vs untreated control.

For the compound `O=C(O)c1cccc2sc(C(F)(F)F)cc12` [Compound 1, 2-trifluoromethylbenzo[b]thiophene-4-carboxylic acid], in assay [1] (0.1 ppm), the “length of seminal root compared with the untreated control plot (in words)” value is listed as “obviously longer”.

Consider `COC(=O)c1cccc2sc(C(F)(F)F)cc12` [Compound 2, methyl 2-trifluoromethylbenzo[b]thiophene-4-carboxylate], for which the relative green leaf area after low-temperature stress at 0.1 ppm in the assay on Nicotiana benthamiana (setting [2]) was no less than 5%.

For `NC(=O)c1cccc2sc(C(F)(F)F)cc12` [Compound 3, 2-trifluoromethylbenzo[b]thiophene-4-carboxamide], the relative green leaf area after low-temperature stress at 0.1 ppm with Nicotiana benthamiana (setting [2]) was no less than 5%. Moreover, the “length of seminal root compared with the untreated control plot (in words)” value in assay [1] (0.1 ppm) is reported as “obviously longer”.

Take `COC(=O)c1ccc2sccc2c1` [Compound 5, methyl benzo[b]thiophene-5-carboxylate]: the relative green leaf area after low-temperature stress at 10 ppm with Nicotiana benthamiana (setting [2]) is no less than 5%.

Take `O=C(O)c1cccc2ccsc12` [Compound 6, benzo[b]thiophene-7-carboxylic acid]: the relative green leaf area after low-temperature stress at 1 ppm in the assay on Nicotiana benthamiana (setting [3]) was no less than 5%. For the same compound, the “length of seminal root compared with the untreated control plot (in words)” value in assay [1] (0.1 ppm) was “obviously longer”.

As to `NC(=O)c1cccc2ccsc12` [Compound 7, benzo[b]thiophene-7-carboxamide], in the assay on Nicotiana benthamiana (setting [3]), the relative green leaf area after low-temperature stress at 1 ppm was no less than 5%. Moreover, the “length of seminal root compared with the untreated control plot (in words)” value in assay [1] (1 ppm) was “obviously longer”.

Turning to `COC(=O)c1cccc2ccsc12` [Compound 8, methyl benzo[b]thiophene-7-carboxylate], the relative green leaf area after low-temperature stress at 1 ppm in the assay with Nicotiana benthamiana (setting [3]) was no less than 5%. Besides, the “length of seminal root compared with the untreated control plot (in words)” value in assay [1] (1 ppm) is listed as “obviously longer”.

In the case of `O=C(O)c1cccc2cc(C(F)(F)F)sc12` [Compound 9, 2-trifluoromethylbenzo[b]thiophene-7-carboxylic acid], the relative green leaf area after low-temperature stress at 0.1 ppm in the assay on Nicotiana benthamiana (setting [2]) is no less than 5%. Further, the “length of seminal root compared with the untreated control plot (in words)” value in assay [1] (1 ppm) is on record as “obviously longer”.

In the case of `COC(=O)c1cccc2cc(C(F)(F)F)sc12` [Compound 10, methyl 2-trifluoromethylbenzo[b]thiophene-7-carboxylate], the relative green leaf area after low-temperature stress at 0.1 ppm in the assay with Nicotiana benthamiana (setting [2]) is no less than 5%. In addition, in assay [1] (1 ppm), the “length of seminal root compared with the untreated control plot (in words)” value is on record as “obviously longer”.

With `NC(=O)c1cccc2cc(C(F)(F)F)sc12` [Compound 11, 2-trifluoromethylbenzo[b]thiophene-7-carboxamide], the relative green leaf area after low-temperature stress at 1 ppm in the assay with Nicotiana benthamiana was no less than 5%.

Consider `COC(=O)c1csc2ccccc12` [Compound 12, methyl benzo[b]thiophene-3-carboxylate], for which the relative green leaf area after low-temperature stress at 1 ppm in the assay with Nicotiana benthamiana (setting [3]) is no less than 5%. The “length of seminal root compared with the untreated control plot (in words)” value in assay [1] (1 ppm) is “obviously longer”.

Regarding `O=C(O)c1csc2ccc(C(F)(F)F)cc12` [Compound 13, 5-trifluoromethylbenzo[b]thiophene-3-carboxylic acid], the relative green leaf area after low-temperature stress at 0.1 ppm with Nicotiana benthamiana (setting [2]) was no less than 5%. Besides, in assay [1] (0.1 ppm), the “length of seminal root compared with the untreated control plot (in words)” value is given as “obviously longer”.

For the compound `NC(=O)c1c(C(F)(F)F)sc2ccccc12` [Compound 17, 2-trifluoromethylbenzo[b]thiophene-3-carboxamide], the “length of seminal root compared with the untreated control plot (in words)” value in assay [1] (1 ppm) is reported as “obviously longer”.

Turning to `COC(=O)c1c(C(F)(F)F)sc2c(C(=O)OC)cccc12` [Compound 18, dimethyl 2-trifluoromethylbenzo[b]thiophene-3,7-dicarboxylate], the “length of seminal root compared with the untreated control plot (in words)” value in assay [1] (10 ppm) is on record as “obviously longer”.

Take `CCOC(=O)c1c(C(F)(F)F)sc2ccccc12` [Compound 22]: in the assay on Nicotiana benthamiana (setting [2]), the relative green leaf area after low-temperature stress at 0.1 ppm is no less than 5% and the relative green leaf area after low-temperature stress at 10 ppm was no less than 5%.

With `CNC(=O)c1c(C(F)(F)F)sc2ccccc12` [Compound 24], the relative green leaf area after low-temperature stress at 1 ppm in the assay with Nicotiana benthamiana (setting [3]) is no less than 5%. The relative green leaf area after low-temperature stress at 10 ppm in the assay on Nicotiana benthamiana (setting [2]) was no less than 5%.

For `O=C(O)c1csc2cc(C(F)(F)F)ccc12` [Compound 27], the “length of seminal root compared with the untreated control plot (in words)” value in assay [1] (0.1 ppm) and in assay [1] (1 ppm) was “obviously longer” throughout.

In the case of `O=C(Nc1ccccc1)c1csc2cc(C(F)(F)F)ccc12` [Compound 32], in the assay with Nicotiana benthamiana (setting [2]), the relative green leaf area after low-temperature stress at 0.1 ppm is no less than 5% and the relative green leaf area after low-temperature stress at 10 ppm is no less than 5%.

For `O=C(NCc1ccccc1)c1csc2cc(C(F)(F)F)ccc12` [Compound 33], in the assay with Nicotiana benthamiana (setting [2]), the relative green leaf area after low-temperature stress at 0.1 ppm was no less than 5% and the relative green leaf area after low-temperature stress at 10 ppm is no less than 5%. For the same compound, the relative green leaf area after low-temperature stress at 1 ppm in the assay with Nicotiana benthamiana (setting [3]) was no less than 5%.
